This test addresses T1, TNFα (Homo sapiens, UniProt P01375).
T1 construct: a human whole blood assay driven by endogenously expressed TNFα; endogenous in cells; host or cells: EDTA anticoagulated human whole blood, stimulated with 1 ug/ml zymosan
Description: TNF human whole blood screening assay: CD11b expression on granulocytes after zymosan challenge. It is filed as cell-based. Particulars: whole blood IC50 multiplied by the unbound fraction (Fu) in human blood; read-out: free IC50 in the human whole blood assay. How it is done: Furthermore, the compounds in accordance with the present invention are potent inhibitors of CD11b expressed on granulocytes in human blood cells, when tested in the human whole blood assay as described herein.
TNF Human Whole Blood Screening Assay
The compounds according to the Examples were assessed in a human whole blood assay driven by endogenously expressed TNFα by measuring the expression of CD11b on granulocytes in human whole blood challenged with zymosan. Zymosan binds to TLR2 and other receptors, leading to NF-κB signalling which in turn induces the production of pro-inflammatory mediators, including TNFα. In turn, TNFα can stimulate the expression of CD11b on granulocytes.
Compounds were diluted from 10 mM DMSO stocks (final assay concentration of 0.2% DMSO) to generate a 10-point 2.5-fold serial dilution curve (for example, 20,000 nM to 5.3 nM final assay concentration). Diluted compound was preincubated with EDTA anticoagulated human whole blood for 60 minutes at 37° C. prior to stimulation with 1 ug/ml zymosan. After 3 hours stimulation with zymosan, the whole blood was stained with fluorescent labelled anti CD45 and anti CD11b antibodies. The samples were fixed and red blood cells lysed before analysis with a FACS CANTO II.
FACS (Fluoresceence Activated Cell Sorting) analysis was performed with FloJo software. SSC-A (Side Scatter Area of peak) and CD45 signal was used to identify granulocytes, followed by SSC-A and SSC-W (Side Scatter Width of peak) to select single cells. MESF (Molecules of Equivalent Soluble Fluorochrome) beads were used to calibrate the CD11b signal on single cell granulocytes. Activation of CD11b was inhibited in a dose dependent manner by the TNFα inhibitor.
Percentage inhibition of compounds was calculated against TNFα containing DMSO alone (control) and maximum inhibition generated with excess blocking anti-TNFα monoclonal antibody. An inhibition curve was constructed in ActivityBase using a 4 parameter logistic model (XLfit™). The point of inflexion between the fitted minimum and maximum effects of the inhibitor gives the IC50 value.
A calculated IC50 for the free compound (herein referred to as “free IC50”) that takes into account the extent of fraction unbound in blood was determined by multiplying the IC50 generated from the first assay (human whole blood screening assay) by the unbound fraction (Fu), generated from the second assay (human blood binding assay).
T1 sequence (P01375 77-233 limits assumed): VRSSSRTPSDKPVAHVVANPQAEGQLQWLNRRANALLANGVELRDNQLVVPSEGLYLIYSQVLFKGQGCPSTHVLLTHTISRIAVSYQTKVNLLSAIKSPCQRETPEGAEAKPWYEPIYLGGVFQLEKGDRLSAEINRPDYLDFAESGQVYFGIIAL
With `C[C@]1(C#N)C[C@](O)(c2ncc(-c3ccc4nc5n(c4c3)[C@@H]3C[C@H]5NC(=O)c4cccc(OC(F)F)c43)cn2)C1` [Example 2, 3-[5-[(1R,11R)-18-(difluoromethoxy)-13-oxo-2,9,12-triazapentacyclo[9.8.1.02,10.03,8.014,19]icosa-3(8),4,6,9,14(19),15,17-heptaen-5-yl]pyrimidin-2-yl]-3-hydroxy-1-methylcyclobutane-1-carbonitrile], the IC50 (as a rule, the concentration needed to halve the response being measured) was about 12 nM. As to `C[C@]1(C#N)C[C@](O)(c2ncc(-c3cc4c(cc3F)nc3n4[C@@H]4C[C@H]3NC(=O)c3cccc(OC(F)F)c34)cn2)C1` [Example 3, 3-[5-[(1R,11R)-18-(difluoromethoxy)-6-fluoro-13-oxo-2,9,12-triazapentacyclo[9.8.1.02,10.03,8.014,19]icosa-3(8),4,6,9,14(19),15,17-heptaen-5-yl]pyrimidin-2-yl]-3-hydroxy-1-methylcyclobutane-1-carbonitrile], the IC50 is about 6 nM.

Turning to `CN1C(=O)c2cccc(OC(F)F)c2[C@H]2C[C@@H]1c1nc3ccc(-c4cnc([C@]5(C#N)C[C@@](C)(O)C5)nc4)cc3n12` [Example 6, 1-[5-[(1R,11R)-18-(difluoromethoxy)-12-methyl-13-oxo-2,9,12-triazapentacyclo[9.8.1.02,10.03,8.014,19]icosa-3(8),4,6,9,14(19),15,17-heptaen-5-yl]pyrimidin-2-yl]-3-hydroxy-3-methylcyclobutane-1-carbonitrile], the IC50 is under 4 nM. To `CN1C(=O)c2cccc(OC(F)F)c2[C@H]2C[C@@H]1c1nc3ccc(-c4cnc([C@]5(C#N)C[C@@](C)(O)C5)c(F)c4)cc3n12` [Example 7, 1-[5-[(1R,11R)-18-(difluoromethoxy)-12-methyl-13-oxo-2,9,12-triazapentacyclo[9.8.1.02,10.03,8.014,19]icosa-3(8),4,6,9,14(19),15,17-heptaen-5-yl]-3-fluoropyridin-2-yl]-3-hydroxy-3-methylcyclobutane-1-carbonitrile] belongs under 4 nM; to `C[C@]1(C#N)C[C@](O)(c2ncc(-c3ccc4nc5n(c4c3)[C@@H]3C[C@H]5NC(=O)c4cccc(OC(F)F)c43)cc2F)C1` [Example 5, 3-[5-[(1R,11R)-18-(difluoromethoxy)-13-oxo-2,9,12-triazapentacyclo[9.8.1.02,10.03,8.014,19]icosa-3,5,7,9,14(19),15,17-heptaen-5-yl]-3-fluoropyridin-2-yl]-3-hydroxy-1-methylcyclobutane-1-carbonitrile], about 5 nM.

On to `[2H]C([2H])([2H])N1C(=O)c2cccc(OC(F)F)c2[C@H]2C[C@@H]1c1nc3ccc(-c4cnc([C@]5(O)C[C@@](C)(C#N)C5)nc4)cc3n12` [Example 1, 3-[5-[(1R,11R)-18-(difluoromethoxy)-13-oxo-12-(trideuteriomethyl)-2,9,12-triazapentacyclo[9.8.1.02,10.03,8.014,19]icosa-3(8),4,6,9,14(19),15,17-heptaen-5-yl]pyrimidin-2-yl]-3-hydroxy-1-methylcyclobutane-1-carbonitrile], for which the IC50 is about 6 nM. To `CN1C(=O)c2cccc(OC(F)F)c2[C@H]2C[C@@H]1c1nc3ccc(-c4cnc([C@]5(O)C[C@@](C)(C#N)C5)c(F)c4)cc3n12` [Example 4, 3-[5-[(1R,11R)-18-(difluoromethoxy)-12-methyl-13-oxo-2,9,12-triazapentacyclo[9.8.1.02,10.03,8.014,19]icosa-3,5,7,9,14(19),15,17-heptaen-5-yl]-3-fluoropyridin-2-yl]-3-hydroxy-1-methylcyclobutane-1-carbonitrile] belongs under 4 nM.

The values above are taken from patent publication US11554122B2, “Fused pentacyclic imidazole derivatives as modulators of TNF activity” (UCB Biopharma SRL, priority 2018, dated 2023).
